PubChem BioAssay (NCI)
Values joined by “and” are separate entries in the source; they are usually repeats but may differ in a detail not shown here. Identical values can stand only once.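 How tested: cells in 96-well plates exposed to compound for 48 hours at five concentrations. GI50: concentration for 50% inhibition of growth. The concentration for full growth arrest is given as TGI.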

Legend:
Assay in all cases: DTP human tumour cell line panel, 48 h
CAKI-1 renal = tested on: CAKI-1 renal
DU-145 prostate = tested on: DU-145 prostate
HCT-116 colon = tested on: HCT-116 colon
HOP-92 NSCLC = tested on: HOP-92 NSCLC
LOX IMVI melanoma = tested on: LOX IMVI melanoma
NCI-H226 lung = tested on: NCI-H226 lung
NCI-H23 lung = tested on: NCI-H23 lung
OVCAR-4 ovarian = tested on: OVCAR-4 ovarian
OVCAR-8 ovarian = tested on: OVCAR-8 ovarian
CCRF-CEM leukemia = tested on: CCRF-CEM leukemia

## Cc1nc2c3c(ncn2n1)Oc1c(c(-c2ccccc2)nn1-c1ccccc1)C3c1ccc(Cl)cc1 (stereo unspecified)
CAKI-1 renal
  TGI: > 100 µM
DU-145 prostate
  TGI: > 100 µM
HCT-116 colon
  TGI: > 100 µM
HOP-92 NSCLC
  TGI: > 100 µM
LOX IMVI melanoma
  TGI: > 100 µM
NCI-H226 lung
  TGI: > 100 µM
NCI-H23 lung
  TGI: > 100 µM
OVCAR-4 ovarian
  TGI: > 100 µM
OVCAR-8 ovarian
  TGI: > 100 µM

## CC1OC2=N[C@@H]1C(=O)N[C@@H](C(C)C)C1=N[C@H](C(=O)N[C@@H](C(C)C)C3=N[C@H](C(=O)N[C@@H](C(C)C)C4=N[C@H](C(=O)N[C@H]2C(C)C)C(C)O4)C(C)O3)C(C)O1 (stereo partly specified)
CAKI-1 renal
  TGI: > 10 µM
CCRF-CEM leukemia
  TGI: > 10 µM
DU-145 prostate
  TGI: > 10 µM
HOP-92 NSCLC
  TGI: > 10 µM
LOX IMVI melanoma
  TGI: > 10 µM
NCI-H226 lung
  TGI: > 10 µM
NCI-H23 lung
  TGI: > 10 µM
OVCAR-4 ovarian
  TGI: > 10 µM
OVCAR-8 ovarian
  TGI: > 10 µM

## CC[N+](C)(CC)CCC(O)(c1ccccc1)c1ccccc1
CCRF-CEM leukemia
  TGI: > 100 µM
DU-145 prostate
  TGI: > 100 µM
HCT-116 colon
  TGI: > 100 µM
LOX IMVI melanoma
  TGI: > 100 µM
NCI-H226 lung
  TGI: > 100 µM
NCI-H23 lung
  TGI: > 100 µM
OVCAR-4 ovarian
  TGI: > 100 µM
OVCAR-8 ovarian
  TGI: > 100 µM

## CC(=O)OCC1OC(n2c3c(c(-c4cccc5ccccc45)c(C#N)c2=S)CCCC3)C(OC(C)=O)C(OC(C)=O)C1OC(C)=O (stereo unspecified)
CCRF-CEM leukemia
  TGI: > 100 µM
DU-145 prostate
  TGI: > 100 µM
HCT-116 colon
  TGI: > 100 µM
HOP-92 NSCLC
  TGI: > 100 µM
LOX IMVI melanoma
  TGI: > 100 µM
NCI-H226 lung
  TGI: > 100 µM
NCI-H23 lung
  TGI: > 100 µM
OVCAR-4 ovarian
  TGI: > 100 µM
OVCAR-8 ovarian
  TGI: > 100 µM

## Cc1ccc(C2=NOC(=O)[C@@H]3CCCC[C@@H]23)cc1
CAKI-1 renal
  TGI: > 100 µM
CCRF-CEM leukemia
  TGI: > 100 µM
DU-145 prostate
  TGI: > 100 µM
HCT-116 colon
  TGI: > 100 µM
LOX IMVI melanoma
  TGI: > 100 µM
NCI-H226 lung
  TGI: > 100 µM
NCI-H23 lung
  TGI: > 100 µM
OVCAR-4 ovarian
  TGI: > 100 µM
OVCAR-8 ovarian
  TGI: > 100 µM

## O=C(NCc1cccc(C(F)(F)F)c1)c1cc2sccc2nc1C(F)(F)F
CAKI-1 renal
  TGI: > 100 µM
CCRF-CEM leukemia
  TGI: > 100 µM
HCT-116 colon
  TGI: > 100 µM
HOP-92 NSCLC
  TGI: > 100 µM
NCI-H226 lung
  TGI: > 100 µM
NCI-H23 lung
  TGI: > 100 µM
OVCAR-4 ovarian
  TGI: > 100 µM
OVCAR-8 ovarian
  TGI: > 100 µM

## O=[N+]([O-])c1ccc2nc(-c3ccccn3)c(-c3ccccn3)nc2c1
CAKI-1 renal
  TGI: > 100 µM
CCRF-CEM leukemia
  TGI: > 100 µM
DU-145 prostate
  TGI: > 100 µM
HCT-116 colon
  TGI: > 100 µM
HOP-92 NSCLC
  TGI: > 100 µM
NCI-H226 lung
  TGI: > 100 µM
NCI-H23 lung
  TGI: > 100 µM
OVCAR-4 ovarian
  TGI: > 100 µM
OVCAR-8 ovarian
  TGI: > 100 µM

## Nc1cccc2c1C(=O)c1cccc(N)c1C2=O
CAKI-1 renal
  TGI: > 100 µM
CCRF-CEM leukemia
  TGI: > 100 µM
HCT-116 colon
  TGI: > 100 µM
HOP-92 NSCLC
  TGI: > 100 µM
LOX IMVI melanoma
  TGI: > 100 µM
NCI-H226 lung
  TGI: > 100 µM
NCI-H23 lung
  TGI: > 100 µM
OVCAR-4 ovarian
  TGI: > 100 µM
OVCAR-8 ovarian
  TGI: > 100 µM

## CC1(C)OCC(C(O)C2OC(C)(C)OC2C=O)O1 (stereo unspecified)
CCRF-CEM leukemia
  TGI: > 100 µM
DU-145 prostate
  TGI: > 100 µM
HCT-116 colon
  TGI: > 100 µM
LOX IMVI melanoma
  TGI: > 100 µM
NCI-H226 lung
  TGI: > 100 µM
NCI-H23 lung
  TGI: > 100 µM
OVCAR-4 ovarian
  TGI: > 100 µM
OVCAR-8 ovarian
  TGI: > 100 µM

## O=[N+]([O-])c1ccc(S[C@@H]2[C@H]3c4c(-c5ccccc5)[nH]c(-c5ccccc5)c4[C@@H]2C[C@H]3Cl)cc1
CAKI-1 renal
  TGI: > 100 µM
DU-145 prostate
  TGI: 17.3 µM
HCT-116 colon
  TGI: 7.86 µM
HOP-92 NSCLC
  TGI: > 100 µM
LOX IMVI melanoma
  TGI: 15.4 µM
NCI-H226 lung
  TGI: > 100 µM
NCI-H23 lung
  TGI: 8.91 µM
OVCAR-4 ovarian
  TGI: 5.4 µM
OVCAR-8 ovarian
  TGI: > 100 µM

## CCOC(=O)c1c(N2CCCC2)ncn(-c2ccccc2)c1=S
CCRF-CEM leukemia
  TGI: > 100 µM
DU-145 prostate
  TGI: > 100 µM
HCT-116 colon
  TGI: > 100 µM
HOP-92 NSCLC
  TGI: > 100 µM
LOX IMVI melanoma
  TGI: > 100 µM
NCI-H226 lung
  TGI: > 100 µM
OVCAR-4 ovarian
  TGI: > 100 µM
OVCAR-8 ovarian
  TGI: > 100 µM

## COC1OC(Cc2nnc(C)o2)C(OCc2ccccc2)C(OCc2ccccc2)C1OCc1ccccc1 (stereo unspecified)
CAKI-1 renal
  TGI: > 100 µM
CCRF-CEM leukemia
  TGI: 52.7 µM
DU-145 prostate
  TGI: > 100 µM
HCT-116 colon
  TGI: > 100 µM
HOP-92 NSCLC
  TGI: > 100 µM
LOX IMVI melanoma
  TGI: 40.3 µM
NCI-H226 lung
  TGI: 95.6 µM
NCI-H23 lung
  TGI: 56 µM
OVCAR-4 ovarian
  TGI: > 100 µM

## Cn1nc2n(c1=O)CCCN2
CCRF-CEM leukemia
  TGI: > 100 µM
DU-145 prostate
  TGI: > 100 µM
HCT-116 colon
  TGI: > 100 µM
HOP-92 NSCLC
  TGI: > 100 µM
LOX IMVI melanoma
  TGI: > 100 µM
NCI-H226 lung
  TGI: > 100 µM
NCI-H23 lung
  TGI: > 100 µM
OVCAR-4 ovarian
  TGI: > 100 µM
OVCAR-8 ovarian
  TGI: > 100 µM

## CC(=O)/C(=C/n1c(=S)[nH]c2ccccc21)C(=O)Nc1ccccc1C
CAKI-1 renal
  TGI: > 100 µM
DU-145 prostate
  TGI: > 100 µM
HCT-116 colon
  TGI: > 100 µM
HOP-92 NSCLC
  TGI: > 100 µM
LOX IMVI melanoma
  TGI: > 100 µM
NCI-H226 lung
  TGI: > 100 µM
NCI-H23 lung
  TGI: > 100 µM
OVCAR-4 ovarian
  TGI: > 100 µM
OVCAR-8 ovarian
  TGI: > 100 µM

## C/C(=C\c1ccccn1)c1ccccn1
CAKI-1 renal
  TGI: > 100 µM
DU-145 prostate
  TGI: > 100 µM
HCT-116 colon
  TGI: > 100 µM
HOP-92 NSCLC
  TGI: > 100 µM
NCI-H23 lung
  TGI: > 100 µM
OVCAR-4 ovarian
  TGI: > 100 µM
OVCAR-8 ovarian
  TGI: > 100 µM

## Cc1cc(=O)n2nc(SCc3ccccc3)sc2n1
CCRF-CEM leukemia
  TGI: > 100 µM
DU-145 prostate
  TGI: > 100 µM
HCT-116 colon
  TGI: > 100 µM
HOP-92 NSCLC
  TGI: > 100 µM
LOX IMVI melanoma
  TGI: > 100 µM
NCI-H226 lung
  TGI: > 100 µM
NCI-H23 lung
  TGI: > 100 µM
OVCAR-4 ovarian
  TGI: > 100 µM
OVCAR-8 ovarian
  TGI: > 100 µM

## c1ccc(CCN2CCc3[nH]c4ccccc4c3C2)cc1
CCRF-CEM leukemia
  TGI: > 100 µM
DU-145 prostate
  TGI: > 100 µM
HCT-116 colon
  TGI: 28.7 µM
HOP-92 NSCLC
  TGI: 34.6 µM
LOX IMVI melanoma
  TGI: 35.4 µM
NCI-H226 lung
  TGI: 71.4 µM
NCI-H23 lung
  TGI: > 100 µM
OVCAR-4 ovarian
  TGI: > 100 µM
OVCAR-8 ovarian
  TGI: 44.7 µM

## O=C(CCN1CCCC1)Nc1ccc2sc3ccccc3c(=O)c2n1
CAKI-1 renal
  TGI: 16.7 µM
CCRF-CEM leukemia
  TGI: 25.8 µM
DU-145 prostate
  TGI: 25.7 µM
HCT-116 colon
  TGI: 16.4 µM
HOP-92 NSCLC
  TGI: 60.4 µM
NCI-H226 lung
  TGI: 29.2 µM
NCI-H23 lung
  TGI: 22.9 µM
OVCAR-4 ovarian
  TGI: 21.7 µM
OVCAR-8 ovarian
  TGI: 17.3 µM

## CN(C)CCNC(=O)c1ccc(NCCCN(C)CCCNc2ccc3c(=O)n(CCN(C)C)c(=O)n4c5ccccc5c(=O)c2c34)c2c(=O)c3ccccc3[nH]c12
CAKI-1 renal
  TGI: 1.06 µM
HCT-116 colon
  TGI: 0.0704 µM
HOP-92 NSCLC
  TGI: 2.92 µM
LOX IMVI melanoma
  TGI: 0.119 µM
NCI-H226 lung
  TGI: 0.665 µM
NCI-H23 lung
  TGI: 0.27 µM
OVCAR-4 ovarian
  TGI: 0.197 µM
OVCAR-8 ovarian
  TGI: 0.885 µM

## Cc1ccccc1-n1c(C)nc2c1C(=O)c1ccccc1C2=O
CAKI-1 renal
  TGI: > 100 µM
CCRF-CEM leukemia
  TGI: > 100 µM
HCT-116 colon
  TGI: > 100 µM
NCI-H226 lung
  TGI: > 100 µM
NCI-H23 lung
  TGI: > 100 µM
OVCAR-4 ovarian
  TGI: > 100 µM
OVCAR-8 ovarian
  TGI: > 100 µM

## CC[N+]1(C)CCC(O)(/C=C/c2ccc(OC)cc2)C(C(=O)/C=C/c2ccc(OC)cc2)C1 (stereo unspecified)
CAKI-1 renal
  TGI: 3.93 µM
DU-145 prostate
  TGI: 31.2 µM
HCT-116 colon
  TGI: > 48.3 µM
HOP-92 NSCLC
  TGI: 34.5 µM
LOX IMVI melanoma
  TGI: > 22.5 µM
NCI-H226 lung
  TGI: > 100 µM
NCI-H23 lung
  TGI: 42.6 µM
OVCAR-4 ovarian
  TGI: > 59.6 µM
OVCAR-8 ovarian
  TGI: > 56.2 µM

## [Cl][Pt+2][Cl].[NH-]C1CCCCC1[NH-] (stereo unspecified)
CAKI-1 renal
  GI50: 1.44 µM and 3.52 µM and 0.769 µM
  TGI: > 53 µM and > 100 µM and 18.1 µM
CCRF-CEM leukemia
  GI50: 3.19 µM and 2.91 µM and 0.872 µM
  TGI: > 100 µM
HCT-116 colon
  TGI: > 100 µM and 16 µM
HOP-92 NSCLC
  GI50: 35.3 µM and > 100 µM and 29.7 µM
  TGI: > 100 µM
LOX IMVI melanoma
  TGI: > 59.3 µM
NCI-H23 lung
  GI50: 7.21 µM and 3.26 µM and 1.07 µM
  TGI: > 58.2 µM and > 100 µM and 17.5 µM
OVCAR-4 ovarian
  GI50: 14.5 µM and 9.24 µM and 2.19 µM
  TGI: 64.2 µM and 90.5 µM and 47.1 µM
OVCAR-8 ovarian
  TGI: > 100 µM

## N=C1N(S(=O)(=O)c2ccccc2)[C@@H](Cc2ccccc2)[C@H](c2ccccc2)C1(c1ccccc1)c1ccccc1
CAKI-1 renal
  TGI: > 100 µM
CCRF-CEM leukemia
  TGI: > 100 µM
DU-145 prostate
  TGI: > 100 µM
HCT-116 colon
  TGI: > 100 µM
LOX IMVI melanoma
  TGI: > 100 µM
NCI-H23 lung
  TGI: > 100 µM
OVCAR-4 ovarian
  TGI: > 100 µM
OVCAR-8 ovarian
  TGI: > 100 µM
